System: α7 integrin promoter
Assay: muscle cell-based assay: α7βgal+/− myoblasts/myotubes, LacZ reporter, β-galactosidase cleavage of FDG
Design: species or system mouse; Results in α7+/− β-galactosidase assay: scale not given here
Conditions: Myoblasts
Outline: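 Fluorescein generated from FDG by β-galactosidase reports α7 integrin promoter activity in differentiated myoblasts from α7+/− LacZ knock-in pups. Screening hits then went to dose-response, western blotting and a myostatin counterscreen.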

| Compound | Results in α7+/− β-galactosidase assay (0.5 uM) | Results in α7+/− β-galactosidase assay (1 uM) | Results in α7+/− β-galactosidase assay (5 uM) | Results in α7+/− β-galactosidase assay (10 uM) | Results in α7+/− β-galactosidase assay (20 uM) | Results in α7+/− β-galactosidase assay (40 uM) |
| --- | --- | --- | --- | --- | --- | --- |
| Oc1nc(SCc2ccc(Cl)cc2)nc2ccsc12 [drawing 635] | 0.07667 | 0.02077 | −0.02435 | −0.03652 | −0.1552 | −0.139 |
| CCn1c(=O)c2cc(C(=O)N(C)c3cc(C)ccc3OC)sc2c2ccccc21 [drawing 636] | 0.06384 | −0.07654 | −0.2273 | −0.2656 | −0.396 | −0.3923 |
| CCOC(=O)C1=C(NC(=O)c2ccc(OC)c(S(=O)(=O)N3CCCCC3C)c2)Nc2ccccc2N=C1CC (stereo not drawn) [drawing 637] | 0.1194 | 0.007377 | −0.06112 | −0.01618 | −0.4913 | −0.6556 |
| O=C(NCc1ccccc1)C(c1c(F)cccc1Cl)N(C(=O)c1csnn1)C1CC1 (stereo not drawn) [drawing 638] | 0.05089 | −0.04686 | −0.06939 | −0.1188 | 0.4333 | −0.4316 |
| Cc1[nH]c2ccc(F)cc2c1CCN(Cc1ccco1)/C(S)=N/C(C)(C)C [drawing 639] | 0.1665 | 0.002443 | −0.08261 | −0.1049 | −0.2055 | −0.2801 |
| c1ccc(-c2cc(-c3nc4ccccc4[nH]3)c3ccccc3n2)cc1 [drawing 640] | 0.2113 | 0.0679 | −0.00848 | −0.0409 | 0.08704 | −0.1752 |
| CCC(C)n1nc(O)cc1N (stereo not drawn) [drawing 641] | 0.2618 | 0.0875 | −0.07378 | −0.09102 | 0.1389 | 0.06802 |
| Cc1ccc(C(=O)N2CCN(S(=O)(=O)N3CCOCC3)CC2)cc1 [drawing 642] | 0.1086 | −0.02563 | 0.3985 | −0.06877 | −0.07784 | −0.1672 |
| Cc1cccc(NC(=O)CN(C)C(=O)c2ccc(-c3ccc(Cl)cc3)o2)c1 [drawing 643] | −0.0624 | −0.00739 | −0.04166 | −0.109 | 0.6807 | −0.2589 |
| Cc1ccccc1S(=O)(=O)N1C[C@H]2CON(C)[C@H]2C[C@H]1c1cccc(-c2ccccc2)c1 [drawing 644] | 0.06241 | 0.06141 | 0.04452 | 0.08987 | −0.2419 | −0.2934 |
| N#C/C(=C/c1ccc(N2CCOCC2)o1)C(=O)Nc1ccccc1 [drawing 645] | 0.06835 | 0.1707 | 0.1316 | 0.05082 | 0.07006 | 0.03748 |
| CCOc1ccccc1Nc1cc2n(c(=O)n1)CCc1cc(OC)c(OC)cc1-2 [drawing 646] | −0.02172 | 0.002645 | −0.2359 | −0.3859 | −0.7975 | −0.7954 |
| CCOc1ccccc1NC(=O)COC(=O)CNS(=O)(=O)c1ccc(C)cc1 [drawing 648] | 0.03233 | 0.05083 | −0.02764 | −0.06749 | −0.1666 | −0.1295 |
| Fc1ccc(-c2ccnc3nc(N4CCN(c5ccccc5)CC4)nn23)cc1 [drawing 649] | 0.1594 | 0.2225 | 0.1641 | 0.1229 | 0.02594 | 0.02675 |
| CCOc1cc2c3c(c1)C(C)=CC(C)(C)N3C(=O)C2=O [drawing 650] | 0.1703 | 0.1592 | −0.1933 | −0.4363 | −0.8277 | −0.8257 |
| COc1ccc2c(c1)/C(=C\c1cccc(/C=C3/C(=O)Nc4ccc(OC)cc43)n1)C(=O)N2 [drawing 651] | −0.2196 | −0.4455 | −0.825 | −0.8112 | −0.9441 | −0.9511 |
| C/C(=N\NC(=O)c1cc(C)oc1C)c1ccc2ccccc2c1 [drawing 652] | −0.1564 | −0.09115 | 0.2722 | −0.1575 | −0.3649 | −0.6275 |
| O=C1Nc2ccccc2/C1=C\c1cccn1-c1ccc(OC(F)(F)F)cc1 [drawing 653] | −0.1201 | 0.155 | 0.2721 | 0.07821 | 0.05267 | −0.1116 |
| NS(=O)(=O)c1ccc(NC(=O)CN2CCc3ccccc32)cc1 [drawing 654] | −0.2007 | −0.06684 | 0.3068 | 0.002758 | −0.1257 | −0.1195 |
| CC(=O)C1=C(C)Nc2ncnn2C1c1ccc(C)cc1 (stereo not drawn) [drawing 655] | −0.08387 | 0.003197 | 0.2805 | −0.01305 | −0.1533 | −0.247 |
| COc1ccc(OC)c(S(=O)(=O)Nc2c(NC3CCCCC3)c3ccccc3oc2=O)c1 [drawing 656] | −0.2127 | −0.1212 | 0.2955 | −0.031 | −0.2083 | −0.2716 |
| CC(=O)Nc1ccc(NC(=O)C/C(C)=N/NC(=O)COc2cc(C)c(Br)cc2Br)cc1 [drawing 657] | −0.2303 | −0.07096 | 0.03872 | −0.07468 | −0.3089 | −0.4449 |
| Cc1cccc(Cn2cnc3c(nnn3Cc3ccc(Cl)cc3)c2=O)c1 [drawing 658] | −0.04558 | 0.03537 | 0.1703 | −0.06567 | −0.2167 | −0.3491 |
| CCOc1ccc(Br)cc1S(=O)(=O)Nc1ccc(C(=O)Nc2ccccc2OC)cc1 [drawing 659] | −0.08436 | 0.06885 | 0.1299 | −0.03674 | −0.08958 | −0.05546 |
| O=C(NCc1ccccc1)c1csc(-c2cccnc2)n1 [drawing 660] | −0.1908 | −0.04939 | 0.2247 | 0.1255 | 0.2423 | 0.1166 |
| O=C1C2CCCN2C(=O)N1CCCN1CCN(c2cccc(Br)c2)CC1 (stereo not drawn) [drawing 661] | 0.07667 | 0.0555 | 0.04982 | 0.05028 | 0.1016 | 0.1941 |
| C=CCc1c(C)nc(-c2ccccc2)nc1N/N=C(\C)c1ccc(N)cc1 [drawing 662] | −0.00814 | −0.05498 | 0.04244 | 0.0834 | −0.05956 | −0.02989 |
| CC(C)(C)c1csc(NC(=O)c2cccnc2)n1 [drawing 663] | 0.2482 | 0.1813 | 0.09125 | 0.06663 | −0.2863 | −0.3378 |

— patent publication US10028992B2, “Methods of treating muscular dystrophy” (BOARD OF REGENTS OF THE NEVADA SYSTEM OF HIGHER EDUCATION …, priority 2012, dated 2018)
